Key:
cyclooxygenase = settings: Adv. Drug Res. 1977, 12:90-245; cited from earlier work
[1] = system: HCT-15 cultured colon cancer cell line; settings: Biochem. Pharmacol. 1996, 52:237-245; cited from earlier work
[2] = system: HT-29 human colon adenocarcinoma cells; settings: cited from earlier work
ApoE-knockout mice = type: in vivo, mouse; settings: Western Diet with Sulindac (300 mg/kg) for 17 weeks, examined four weeks after injury; vs control group
Excerpt: We have developed a new mouse model of studying restenosis, in which the injury of the femoral artery is accomplished by the manipulation of wire stent which is introduced into the femoral artery first and then removed.
Briefly, the mouse is anesthetized with pentobarbital and the femoral artery is exposed by cutting the skin in the femoral region carefully. An angioplastz guide wire obtained from Advanced Cardiovascular Systems, Tameaila, Calif. of approximately 100 mm in length and 0.25 mm in diameter is then carefully inserted into the femoral artery, gently manipulated to simulate the arterial revascularization procedures used in humans, and removed. The bleeding is stopped by ligation. The skin fold is restored by sutures.
By one month after injury maximum restenosis is measured is achieved. The degree of restenosis is measured by two indices, the intima/media (I/M) ratio and the percentage of lumenal narrowing. […]
Thirty six week old ApoE-knockout mice were used and given the following dietary regimen and treatment: Group 1-western type diet (containing 42% by calories % fat and 0.15% (w/w) cholesterol); Group 2-western type diet plus aspirin at a concentration of 300 mg/kg diet/day and Group 3-western type diet plus Sulindac at a concentration of 300 mg/kg diet/day. […] The body weight was monitored on a weekly basis. […]

ApoE-deficient mice = experiment: Atherosclerotic lesions and plasma cholesterol in ApoE-deficient mice on western diet; type: in vivo, mouse; settings: ApoE-deficient mice maintained on a western diet
Excerpt: The Apo-E deficient mouse is the first mouse model of atherosclerosis with pathology similar to that of human atherosclerosis (Cell 1992, 71:343-353). Serum cholesterol levels in the mice maintained on a chow diet are five times higher than those of control littermates. Apo-E, which is made primarily in the liver, is a surface constituent of lipoprotein particles and a ligand for lipoprotein recognition and clearance by lipoprotein receptors (Science 1996, 272:685-688). ApoE-deficient mice have delayed clearance of lipoproteins, and on a low-cholesterol, low-fat diet, their cholesterol levels reach 400 to 600 mg/dl as a result of accumulation of chylomicron and very low-density lipoprotein (VLDL) remnants enriched in esterified and free cholesterol (Circulation 1993, 88:A9). These mice develop not only fatty streaks but also widespread fibrous plaque lesions at vascular sites typically affected in human atherosclerosis (Arterioscier. Thromb. 1994, 14;1873). Lesions form at the base of the aorta and the lesser curvature of the thoracic aorta, at the branch points of the carotid, intercostal, mesenteric, renal and iliac arteries, and in the proximal coronary, carotid, femoral, subclavian, and brachiocephalic arteries. Lesions begin at 5 to 6 weeks of age with monocyte attachment to the endothelium in lesion-prone areas and transendothelial migration. Fatty streak lesions begin to appear at 10 weeks, and intermediate lesions containing foam cells and spindle-shaped smooth muscle cells appear at 15 weeks. Fibrous plaques appear after 20 weeks and consist of a necrotic core covered by a fibrous cap of smooth muscle cells surrounded by elastic fibers and collagen. In older mice, fibrous plaques progress. In some advanced lesions there is partial destruction of underlying medial cells with occasional aneurysm formation, and in others calcification occurs in the fibrous tissue. Extensive fibro-proliferation can narrow the lumen, even to the point of occlusion of vessels.
Atherosclerosis can be exacerbated by a high-cholesterol or high-fat diet. This effect is mimicked in the ApoE-deficient mice when these mice are fed a western-type diet as described below in Section 6.
The Apolipoprotein E knock-out mouse model is a valuable animal model to test the effect of NSAIDs on apoptosis, proliferation, quiescence, migration and differentiation of cells that contribute to atherosclerosis. ApoE is an apoprotein on the surface of atherogenic lipoproteins that serves as a ligand for certain receptors in key tissues. ApoE-induced signaling via these receptors, particularly by the hepatic LDL receptor, induces the removal of ApoE-containing lipoprotein particles from the plasma. […]

Compound: CSc1ccc(/C=C2/C(C)=C(CC(=O)O)c3cc(F)ccc32)cc1 [sulfide, Sulindac sulfide]
- inhibition of cyclooxygenase (cyclooxygenase): potent inhibitory agent of cyclooxygenase

Compound: CN1C(C(=O)Nc2ccccn2)=C(O)c2ccccc2S1(=O)=O [piroxicam]
- antiproliferative effect [1]: antiproliferative effect independent of prostaglandin synthesis
- morphology of HT-29 cells [2]: altered morphology
- proliferation of HT-29 cells [2]: reduced proliferation

Compound: CC1=C(CC(=O)O)c2cc(F)ccc2/C1=C\c1ccc([S+](C)[O-])cc1 (stereo not drawn) [Sulindac]
- antiproliferative effect [1]: antiproliferative effect independent of prostaglandin synthesis
- arterial narrowing after mechanical arterial injury (ApoE-knockout mice): narrowing of the artery was not as marked
- smooth muscle cell proliferation after mechanical arterial injury (ApoE-knockout mice): much less proliferation of smooth muscle cells
- morphology of HT-29 cells [2]: altered morphology
- proliferation of HT-29 cells [2]: reduced proliferation
- development of atherosclerotic lesion / atherosclerotic index (ApoE-deficient mice): significantly inhibited
- level of cholesterol in the plasma (ApoE-deficient mice): reduced the level of cholesterol in the plasma

Compound: CC(=O)Oc1ccccc1C(=O)O [aspirin]
- morphology of HT-29 cells [2]: altered morphology
- proliferation of HT-29 cells [2]: reduced proliferation
- development of atherosclerotic lesion / atherosclerotic index (ApoE-deficient mice): inhibited the atherosclerotic index but to a lesser extent than observed in the group treated with Sulindac
- level of cholesterol in the plasma (ApoE-deficient mice): reduced the level of cholesterol in the plasma

Compound: COc1ccc2c(c1)c(CC(=O)O)c(C)n2C(=O)c1ccc(Cl)cc1 [indomethacin]
- morphology of HT-29 cells [2]: altered morphology
- proliferation of HT-29 cells [2]: reduced proliferation

Compound: CC1=C(CC(=O)O)c2cc(F)ccc2/C1=C\c1ccc(S(C)(=O)=O)cc1 [sulfone, Sulindac sulfone]
- inhibition of cyclooxygenase (cyclooxygenase): does not inhibit cyclooxygenase
